Consider three molecules from ChEMBL document CHEMBL5137019, “Sattahipmycin, a Hexacyclic Xanthone Produced by a Marine-Derived Streptomyces” (J Nat Prod, 2022).

pIC50: −log10 of the molar value. Converted amounts (≈) assume the structure as drawn. The source made the active and inactive calls. The calls are words filed in the database; no cut-off is given here.

Data set [1] can be described thus: Selectivity index, ratio of IC50 for cytotoxicity against human MRC5 cells to IC50 for antimalarial activity against […] Plasmodium falciparum FCR3. In kind it is toxicity, cell-based. The following applies: MRC5 cells versus Plasmodium falciparum FCR3, read-out: Ratio IC50.
Data set [2] relates to Plasmodium falciparum. Put plainly: Antimalarial activity against chloroquine-sensitive Plasmodium falciparum FCR3 assessed as parasite growth inhibition and measured after 72 hrs by ELISA. In kind it is functional, organism-based. The conditions noted are these: FCR3, 72 h. (In general: An ELISA detects its analyte on a solid surface through an enzyme-linked reagent.)
Data set [3] has as its system Plasmodium falciparum. Put plainly: Antimalarial activity against chloroquine-resistant Plasmodium falciparum K1 assessed as parasite growth inhibition and measured after 72 hrs by ELISA. In kind it is functional, organism-based. The conditions noted are these: K1, 72 h.
Data set [4] can be described thus: Cytotoxicity against human MRC5 cells assessed as cell growth inhibition and measured after 2 days by WST-8 assay. Type of data set: toxicity, cell-based. A general note: Tetrazolium dyes change colour on reduction, which living cells bring about.
Data set [5] in a line: Selectivity index, ratio of IC50 for cytotoxicity against human MRC5 cells to IC50 for antimalarial activity against chloroquine-resistant Plasmodium falciparum K1. In kind it is toxicity, cell-based. The conditions noted are these: MRC5 cells versus Plasmodium falciparum K1, read-out: Ratio IC50.
The subject of data set [6] is Escherichia coli. Put plainly: Antibacterial activity against Escherichia coli NBRC 3972 assessed as bacterial growth inhibition by paper disc method. Type of data set: functional.
In data set [7] the test system is Staphylococcus aureus. Put plainly: Antibacterial activity against Staphylococcus aureus KB210 assessed as bacterial growth inhibition by paper disc method. Type of data set: functional.
Another data set has as its system Kocuria rhizophila. Put plainly: Antibacterial activity against Kocuria rhizophila KB212 assessed as bacterial growth inhibition by paper disc method. Type of data set: functional.
For another data set, the system named is HeLa S3. Put plainly: Cytotoxicity against human HeLa S3 cells assessed as cell growth inhibition and measured after 2 days by WST-8 assay. Type of data set: functional, cell-based. The following applies: HeLa S3, 48 h.
In data set [8] the test system is Bacillus subtilis. The data set can be described thus: Antibacterial activity against Bacillus subtilis KB211 at 1 to 30 ug paper disc by paper disc method. Type of data set: functional, organism-based. The conditions noted are these: dose 1-30 µg.
Data set [9] has as its system Bacillus subtilis. Put plainly: Antibacterial activity against Bacillus subtilis KB211 assessed as bacterial growth inhibition by paper disc method. In kind it is functional.
Data set [10] has as its system Escherichia coli. Put plainly: Antibiofilm activity against Escherichia coli NBRC 3972 assessed as inhibition of biofilm formation at 15 to 60 ug/ml incubated overnight by crystal violet staining based ELISA. In kind it is functional. The following applies: dose 15-60 µg/ml; at 15 to 60 µg/mL.
A further data set deals with NCI-H1299. The data set can be described thus: Cytotoxicity against human NCI-H1299 cells assessed as cell growth inhibition and measured after 2 days by WST-8 assay. In kind it is functional, cell-based. The following applies: NCI-H1299, 48 h.
The subject of the next data set is PANC-1. The data set can be described thus: Cytotoxicity against human PANC-1 cells assessed as cell growth inhibition and measured after 2 days by WST-8 assay. Type of data set: functional, cell-based. The conditions noted are these: PANC-1, 48 h.
Data set [11] has as its system Xanthomonas campestris pv. oryzae. The data set can be described thus: Antibacterial activity against Xanthomonas campestris pv. oryzae KB88 at 1 to 30 ug per disc by paper disc method. Type of data set: functional, organism-based. The following applies: dose 1-30 µg.
A further data set concerns HT-29. Put plainly: Cytotoxicity against human HT-29 cells assessed as cell growth inhibition and measured after 2 days by WST-8 assay. Type of data set: functional, cell-based. The following applies: HT-29, 48 h.
The test system of data set [12] is Xanthomonas campestris pv. oryzae. Put plainly: Antibacterial activity against Xanthomonas campestris pv. oryzae KB88 assessed as bacterial growth inhibition by paper disc method. In kind it is functional.
In a further data set the test system is A549. The data set can be described thus: Cytotoxicity against human A549 cells assessed as cell growth inhibition and measured after 2 days by WST-8 assay. The conditions noted are these: A549, 48 h. Type of data set: functional, cell-based.
The test system of data set [13] is Escherichia coli. Put plainly: Bactericidal activity against Escherichia coli NBRC 3972. Type of data set: functional.
For another data set, the system named is Micrococcus luteus. The data set can be described thus: Antibacterial activity against Micrococcus luteus KB212 at 1 to 30 ug per disc by paper disc method. The following applies: dose 1-30 µg. Type of data set: functional, organism-based.
For data set [14], the system named is Staphylococcus aureus. The data set can be described thus: Antibacterial activity against Staphylococcus aureus KB210 at 1 to 30 ug per disc by paper disc method. In kind it is functional, organism-based. The conditions noted are these: dose 1-30 µg.

Turning to `C[C@@H]1CC[C@H]2[C@@H](C)C(=O)O[C@@H]3O[C@@]4(C)CC[C@@H]1[C@]32OO4` [ARTEMISININ], the selectivity ratio in data set [1] stood at 2030; in data set [5], 1580. For the same molecule, the pIC50 is 7.70 in the data set on Plasmodium falciparum [2] and 7.52 with Plasmodium falciparum [3]. Besides, the IC50 at 2 days in [4] amounted to 50300 nM.

In the case of `COc1c2c(c(O)c3c(=O)c4cccc(O)c4oc13)-c1c(cc3cc(C)[nH]c(=O)c3c1O)C[C@H]2O`, the MIC is greater than 250 µg/mL in the data set on Escherichia coli [6]; 0.25 µg/mL (≈ 0.528 µM) with Staphylococcus aureus [7]; 0.25 µg/mL (≈ 0.528 µM) with Kocuria rhizophila; 0.25 µg/mL (≈ 0.528 µM) with Bacillus subtilis [9]; 0.25 µg/mL (≈ 0.528 µM) in data set [12]. Moreover, the selectivity ratio is 0.85 in data set [1] and 0.62 in [5]. In addition, the pIC50 in the data set on HeLa S3 is 5.66; with Plasmodium falciparum [2] it was 6.70; in the data set with NCI-H1299 it was 4.97; in the data set with Plasmodium falciparum [3], 6.57; in the data set with PANC-1, 4.89; with HT-29, 5.72. Also, in the data set on A549, the pIC50 was 5.73. Further, the result (in the data set on Bacillus subtilis [8]; in [11]; with Micrococcus luteus; with Staphylococcus aureus [14]) was Active. Besides, the “inhibition (INH)” value in the data set with Escherichia coli [10] is 50%. The 50% inhibitory concentration (IC50) at 2 days in [4] stood at 170 nM. In addition, the Activity in the data set with Escherichia coli [13] was greater than 250 µg/mL.

As to `CCN(CC)CCCC(C)Nc1ccnc2cc(Cl)ccc12` (configuration not stated) [CHLOROQUINE], the IC50 at 2 days in data set [4] was 58200 nM.

By pIC50 is commonly meant the negative decadic logarithm of the IC50, by convention in mol/L. Broadly, the IC50 is the concentration that gives 50% inhibition. The MIC is the lowest concentration that inhibits growth of the organism.
